In US20100197712A1, “USE OF DOPAMINE STABILIZERS” (priority 2007, published 2010):
Counter-ions that a name gives are not always drawn. Blank lines part the entries; values can stand above or below the molecule they belong to.

What was measured:
[1] = system: active rats; test: Video tracking: motor activity (velocity) of active rats; assay type: in vivo, Sprague-Dawley rats
Experimental: (§1) Prior to testing, the rats were housed for approximately 1 week with free access to food and water, in groups of four or five in Macrolon type III cages in the animal facility of the Sahlgrenska Academy at Göteborg University. The experiments were approved by the animal ethics committee in Göteborg.
(§2) OSU6162, ACR16, apomorphine and (−)-3-PPP were dissolved in 0.9% saline. A few grains of ascorbic acid were added to apomorphine solutions to prevent oxidation of the drug. Haloperidol and amisulpride were dissolved in a minimum amount of acetic acid and diluted with 5.5% glucose. The solutions were adjusted to pH 5-7 with sodium bicarbonate. Aripiprazole was dissolved in a minimum amount of heated acetic acid, diluted in warm 5.5% glucose and adjusted to pH 4-5. All drugs were administered intraperitoneally (i.p.) or subcutaneously (s.c.) in volumes of 5 ml/kg. Control treatments consisted of the appropriate vehicle administered in accordance with the drug treatment at issue.
(§3) The rats were housed in reverse daylight cycle and all handling of the animals was performed in dim light. Apomorphine was administered s.c. 5 minutes prior to testing, while all other drugs were injected i.p. or s.c. 30 minutes before testing. Single rats were introduced into rectangular arenas (l/w/h: 150×100×40 cm) illuminated indirectly by one infrared lamp (Neocom, South Korea). The rats' movements were recorded to digital (MPEG2) video files using an IR sensitive video camera (Panasonic WV-CPR480, lens: Panasonic LA-408C3) connected to a PC equipped with a MPEG-encoder (MVR1000^SX, Canopus Co.). […] Behavioural variables were extracted from the tracks in MatLab (The MathWorks, Inc., USA) with functions developed in this laboratory. Mean velocity was used to measure motor activity. Prior to calculation of velocity the tracks were subjected to a running mean filter, i.e. each sample was replaced by the mean of fifteen consecutive samples.
(§4) In several cases data from two or more experiments have been pooled. […] Confirmed outlying values (N=0-3 per experiment) were excluded from statistical analyses and graphical presentations. Data from the video tracking setting was analyzed with univariate general linear model (GLM). Following GLM analysis, comparisons versus the appropriate control groups were performed with Dunnet's post hoc test. […] Data obtained from activity boxes was analyzed with Kruskal-Wallis one-way analysis of variance by ranks. […] All statistical tests were two sided and p<0.05 was considered statistically significant.

[2] = Hartter et al., 2003; cited from earlier work
[3] = system: apomorphine induced hypomotility in rats; test: Apomorphine induced hypomotility in rats (video tracking); assay type: in vivo, Sprague-Dawley rats
Experimental: FIG. 7. […] Test drugs were administered 30 minutes prior to registration. Motor activity was measured for 30 minutes as velocity in the video tracking setting. Statistical comparisons were made versus the apomorphine group with univariate general linear model, followed by Dunnet's post hoc test. *p<0.05; *p<0.01; ***p<0.001. FIG. 8.
as §3, §4

[4] = system: habituated rats; test: Motor activity of habituated rats in activity boxes; assay type: in vivo, Sprague-Dawley rats; conditions: s.c.
Experimental: as §1, §2
Rats were housed in a normal daylight cycle and testing was performed during daytime. Animals were introduced into sound attenuated, illuminated activity boxes (1/w/h: 40×40×20 cm) and were allowed to habituate in the new environment for 65 minutes. During the following 5 minutes test drugs were injected s.c., after which the rats were returned to the boxes for another 60 minutes. Five by five rows of photocell beams at floor level allowed a computer based-system to register horizontal activity. Motor activity is presented as accumulated number of unrepeated beam breaks, i.e. several consecutive breakings of one beam is counted as one beam break. The software was set to register behaviour from the rat's first introduction into the arena until it was finally removed from the box, i.e. for 130 minutes. Activity is presented separately for t=0-30 min and t=30-60 min after injection.
as §4

[5] = system: mice pretreated with reserpine and alpha-methylpara-tyrosine; test: Mouse model of Parkinsonism (reserpine and alpha-methyl-para-tyrosine pretreated mice); assay type: in vivo, NMRI mice
Experimental: Animals were pretreated with reserpine (10 mg/kg i.p.) and alpha-methylpara-tyrosine (500 mg/kg i.p.) 18 and 4 hours before the experiment, respectively, and were then treated with various i.p. doses of OSU6162, expressed in […], or saline (“ctr”). Immediately following injection the animals were placed in individual cages and video-taped from above for 60 min. Shown are the distances moved, means and S.E.M. N=5-6 per treatment group. Statistics: *P<0.05, **p<0.01, as compared with the controls.
In these experiments we used male NMRI mice weighting 25-30 g at the time of testing. The mice were pretreated with reserpine, 10 mg/kg i.p., 18 hours, and alpha-methyl-para-tyrosine HCl, 500 mg/kg i.p. 2 hours, respectively, before the experiment.
The actual experiment was started by injecting either OSU6162 in doses of 5, 25 or 125 μmol/kg i.p.or placebo (a physiological saline solution). Each dosage group consisted of 5-6 mice. Immediately after injection the mice were placed in individual cages and video taped from above for 60 min. Various aspects of motility were analysed from the video tapes.
Statistical calculations were performed with the non parametric Mann-Whitney U-test, and asterisks in the graph indicate significant differences compared to control group (*p<0.05; **p<0.01).

[6] = target: dopamine D2 receptors (Homo sapiens, UniProt P14416); conditions: in-vitro binding, Sonesson et al. 1994; cited from earlier work
[7] = system: rats; test: Preliminary experiment: rats in large illuminated arenas during daytime; assay type: in vivo
Text: As to the issues of illumination and daylight cycle, behavioural inhibition has been observed in ultraviolet (Rung et al., 2005b) or infrared light (current study) during the dark hours of the rats' diurnal rhythm. Based on how the light is perceived by humans, we presume that the ultraviolet and infrared light used in these studies is perceived by the rats as dim light and darkness respectively.

[8] = system: amphetamine-induced hyperactivity in rats; conditions: Natesan et al., 2006; cited from earlier work
[9] = target: T1, human D2l receptors (Homo sapiens, UniProt P14416); test: Incorporation of GTPgammaS^35 in CHO-hD2l membranes; assay type: biochemical
T1 construct: expressed in transfected cells; host or cells: CHO (CHO-hD2l cells), membrane preparation
Experimental: Membranes were stored at −80° C. at a concentration of 1 mg protein/ml buffer.
Dopamine-stimulated GTPgammaS^35 incorporation was determined using the following procedure: in a buffer containing 20 mM HEPES, 5 mM Mg Cl2, 100 mM NaCl, at pH 7.5, membranes ([…]) were incubated with vehicle, drugs and 3 μM GDP for 30 min at 30° C., total volume was 1.1 ml. […] The reaction was stopped by filtering the samples with a Brandel harvester on Whatmann GF/B filters. Filters were placed in liquid scintillation vials containing 10 ml of BCS scintillation fluid and counted the next day. All samples were run in triplicate.

[10] = clinical dosages of at least 25 mg per day; cited from earlier work
[11] = system: rats; conditions: small activity boxes; pre-treatment 30 minutes; dark hours, light turned off; preliminary
[12] = i.p., 30 min prior to 30 min tracking
[13] = apomorphine 0.16 μmol/kg s.c., test drug i.p. 30 min prior, dose range per drug
[14] = whole 60 min registration / either time interval

T1 sequence (P14416 whole entry): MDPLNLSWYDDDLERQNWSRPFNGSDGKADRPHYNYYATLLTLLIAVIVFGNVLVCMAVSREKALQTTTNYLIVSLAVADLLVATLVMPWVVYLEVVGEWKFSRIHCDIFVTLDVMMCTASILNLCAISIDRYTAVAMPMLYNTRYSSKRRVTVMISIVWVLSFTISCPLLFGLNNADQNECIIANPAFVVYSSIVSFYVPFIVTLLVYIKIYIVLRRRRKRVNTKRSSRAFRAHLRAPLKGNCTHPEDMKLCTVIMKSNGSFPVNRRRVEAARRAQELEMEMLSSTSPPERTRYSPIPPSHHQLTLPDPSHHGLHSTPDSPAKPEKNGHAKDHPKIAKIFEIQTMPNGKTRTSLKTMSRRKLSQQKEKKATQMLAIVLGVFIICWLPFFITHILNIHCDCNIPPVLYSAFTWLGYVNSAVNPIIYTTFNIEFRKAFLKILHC
Sequence of dopamine D2 receptors (P14416 whole entry): as above

Compound: CCN1CCCC1CNC(=O)c1cc(S(=O)(=O)CC)c(N)cc1OC (stereo not drawn) [amisulpride, reference compound]
motor activity (velocity) [1, 12]: inhibited motor activity slightly at the highest dose tested
penetration of biological membranes [2]: poor penetration of biological membranes
effect on apomorphine-induced hypomotility ([3]; amisulpride 270 μmol/kg, s.c., data not shown): a mere tendency towards reversal of apomorphine-induced hypoactivity
effect on apomorphine-induced hypomotility [3, 13]: effectively counteracted apomorphine-induced hypoactivity
motor activity (accumulated unrepeated beam breaks) [4, 14]: Neither haloperidol (0.1-0.8 μmol/kg) nor amisulpride (33-300 μmol/kg) had any significant effects on motor activity

Compound: CCCN1CCC[C@@H](c2cccc(O)c2)C1 [(−)-3-PPP, S-(−)-3-[3-hydroxyphenyl]-1-propylpiperidine, reference compound]
motor activity (velocity) ([1]; s.c., 30 min prior to 30 min tracking, OSU6162 50-200 μmol, (−)-3-PPP 2.5 and 10 μmol/kg): marked and dose-dependent inhibition on motor activity, that was statistically significant at all doses tested
motor activity (accumulated unrepeated beam breaks) [4, 14]: did not have any statistically significant effects on motor activity in either time interval

increase of the incorporation of GTPgammaS^35 ([9]; absence of dopamine, 100 to 10,000 nM (−)OSU6162): 8 to 11%
effect on GTPgammaS^35 incorporation ([9]; dopamine 10 to 100 nM, (−)-OSU6162 1,000 to 10,000 nM): this increase was no longer seen
effect on GTPgammaS^35 incorporation ([9]; dopamine 1,000 and 10,000 nM, varied (−)-OSU6162 levels): similar, though flatter activity curves
Compound: CCCN1CCC[C@@H](c2cccc(S(C)(=O)=O)c2)C1 [(−)-OSU6162, S-(−)-3-[3-methylsulfonylphenyl]-1-propylpiperidine]
motility (distance moved, 60 min) ([5]; OSU6162 5 μmol/kg i.p.): showed only minimal signs of motility
motility (distance moved, 60 min) ([5]; OSU6162 two higher doses (25, 125 μmol/kg i.p.)): significant, dose dependent increase in motility
Ki [6]: in the micromolar region
motor activity (velocity) [1, 12]: dose-dependent and statistically significant reduction of motor activity
behavioural response ([7]; daytime, large illuminated arenas, not habituated): behavioural inhibition similar to that observed in darkness
behavioural response ([7]; rats habituated to large illuminated arenas): did not respond with any change in activity
effect on amphetamine-induced hyperactivity [8]: reverse amphetamine-induced hyperactivity
effect on GTPgammaS^35 incorporation ([9]; dopamine 10 to 100 nM, (−)-OSU6162 10 to 100 nM): caused an increased incorporation of GTPgammaS^35
cardiac adverse effects [10]: QTc values higher than normal, cardiac arrhythmia, or heart rhythm abnormalities, such as torsades de pointes
effect on apomorphine-induced hypomotility ([3]; apomorphine 0.16 μmol/kg s.c., OSU6162 120 μmol/kg i.p.): seemed to cause a marked drop in motor activity
effect on apomorphine-induced hypomotility [3, 13]: modest but apparently dose dependent reversal of apomorphineinduced hypomotility up to a dose of 60 μmol/kg
dose at which a significant effect on motor activity shows up ([4]; later experiment with lower doses 6.25 and 12.5 μmol/kg): 12.5 µmol/kg
motor activity (accumulated unrepeated beam breaks) ([4]; t=0-30 min after injection): marked locomotor activation
motor activity (accumulated unrepeated beam breaks) ([4]; t=30-60 min after injection): the three highest doses significantly stimulated locomotion

Compound: CN1CCc2cccc3c2[C@H]1Cc1ccc(O)c(O)c1-3 [apomorphine, R-(−)-Apomorphine hydrochloride hemihydrate]
locomotor activity (velocity) ([1]; apomorphine 0.04-0.16 μmol/kg s.c., 5 min prior to registration): dose dependent inhibiting effect on locomotor activity
motor activity (velocity) ([1]; apomorphine higher dose-interval 0.16-64 μmol/kg s.c.): motor activity began to return towards a level similar to that observed in controls
dose of maximal inhibition of motor activity ([1]; apomorphine s.c.): 0.16 µmol/kg

Compound: O=C(CCCN1CCC(O)(c2ccc(Cl)cc2)CC1)c1ccc(F)cc1 [haloperidol, reference compound]
motor activity relative to control ([1]; haloperidol 0.8 μmol/kg, s.c.): approximately 7 % of control level
motor activity (velocity) [1, 12]: statistically significant inhibition at the highest dose
effect on apomorphine-induced hypomotility [3, 13]: no statistically significant effects on motor activity
motor activity (accumulated unrepeated beam breaks) [4, 14]: Neither haloperidol (0.1-0.8 μmol/kg) nor amisulpride (33-300 μmol/kg) had any significant effects on motor activity

Compound: CCCN1CCC(c2cccc(S(C)(=O)=O)c2)CC1 [ACR16, 4-(3-methanesulfonylphenyl)-1-propyl-piperidine]
motor activity (velocity) [1, 12]: dose-dependent and statistically significant reduction of motor activity
effect on amphetamine-induced hyperactivity [8]: reverse amphetamine-induced hyperactivity
motor activity [11]: marked reduction in motor activity
effect on apomorphine-induced hypomotility ([3]; apomorphine 0.08 μmol/kg s.c., ACR16 i.p., higher dose): tended to inhibit activity further
effect on apomorphine-induced hypomotility [3, 13]: did not have any noticeable effect on apomorphine-induced hypoactivity
motor activity (accumulated unrepeated beam breaks) ([4]; t=0-30 min after injection): this effect increased dose-dependently
motor activity (accumulated unrepeated beam breaks) ([4]; t=30-60 min after injection): the effect appeared to peak at the dose 50 μmol/kg
motor activity (accumulated unrepeated beam breaks) [4, 14]: caused an activation, although smaller than that of OSU6162

Compound: O=C1CCc2ccc(OCCCCN3CCN(c4cccc(Cl)c4Cl)CC3)cc2N1 [aripiprazole, reference compound]
motor activity (velocity) [1, 12]: marked and dose-dependent inhibition on motor activity, that was statistically significant at all doses tested
motor activity (accumulated unrepeated beam breaks) ([4]; t=0-30 min after injection): dose-dependent inhibition during the first 30 minutes after injection, which was statistically significant at the highest dose
motor activity (accumulated unrepeated beam breaks) ([4]; t=30-60 min after injection): did not affect locomotor activity
